Structures are written as SMILES.

From article doi:10.1101/2025.05.06.651509v2 (biorxiv, 2026) come the findings set out here.

One experiment addresses T1, TSC22D4 (Homo sapiens, UniProt Q9Y3Q8).
T1 sequence (Q9Y3Q8 1-395): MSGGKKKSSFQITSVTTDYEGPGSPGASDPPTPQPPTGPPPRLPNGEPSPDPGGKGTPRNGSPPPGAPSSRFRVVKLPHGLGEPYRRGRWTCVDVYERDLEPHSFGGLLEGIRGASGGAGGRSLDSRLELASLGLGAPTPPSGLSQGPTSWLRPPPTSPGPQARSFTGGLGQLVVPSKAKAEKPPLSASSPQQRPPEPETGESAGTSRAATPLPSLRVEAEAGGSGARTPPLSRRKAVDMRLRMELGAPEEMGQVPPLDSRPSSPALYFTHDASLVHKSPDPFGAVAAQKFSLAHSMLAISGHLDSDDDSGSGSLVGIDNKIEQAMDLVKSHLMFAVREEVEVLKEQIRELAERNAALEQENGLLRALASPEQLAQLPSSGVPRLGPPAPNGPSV
Kind of experiment: microscale thermophoresis. Type of experiment: binding. Conditions: room temperature.

The next experiment deals with IGF2BP2 (Homo sapiens, UniProt Q9Y6M1). The experiment is described as follows: microscale thermophoresis. Format: binding. Conditions: room temperature; legend of Figure 4A prints 12 μM.
Chain of IGF2BP2 (Q9Y6M1 whole entry): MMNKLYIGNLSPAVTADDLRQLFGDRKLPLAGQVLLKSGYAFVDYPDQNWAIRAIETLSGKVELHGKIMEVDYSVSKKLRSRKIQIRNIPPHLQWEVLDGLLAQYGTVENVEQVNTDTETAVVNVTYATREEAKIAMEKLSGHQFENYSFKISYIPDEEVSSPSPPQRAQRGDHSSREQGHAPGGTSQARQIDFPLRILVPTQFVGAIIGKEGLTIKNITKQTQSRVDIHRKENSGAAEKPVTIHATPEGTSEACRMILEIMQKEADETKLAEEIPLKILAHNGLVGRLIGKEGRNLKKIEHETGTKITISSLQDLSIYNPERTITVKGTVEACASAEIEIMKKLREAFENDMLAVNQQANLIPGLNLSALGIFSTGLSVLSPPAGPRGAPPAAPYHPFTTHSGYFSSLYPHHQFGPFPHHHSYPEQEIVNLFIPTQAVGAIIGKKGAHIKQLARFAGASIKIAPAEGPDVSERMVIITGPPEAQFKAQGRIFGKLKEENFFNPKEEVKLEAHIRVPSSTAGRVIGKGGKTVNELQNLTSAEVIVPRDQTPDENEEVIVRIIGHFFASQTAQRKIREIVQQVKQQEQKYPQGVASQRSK

What is called Kd is the free concentration of one partner at which half of the binding sites on the other are occupied at equilibrium, for simple one-to-one binding. With `OC[C@H]1OC(O)[C@H](O)[C@@H](O)[C@@H]1O` (some centres unmarked) [glucose], the results for the Kd at TSC22D4 and on IGF2BP2 were ~464 µM and 8.2 µM, respectively.
